The subject of one series is HIV-1. Kind of series: in vitro anti-HIV-1 assay: inhibition of the virus-induced cytopathic effect in MT-4 cells (MTT). As to conditions: for S. I. (CD50 /ED50): Selectivity index = (CD50 /ED50). It counts as cell-based. Here is the method: The in vitro anti-HIV-1 assays were based on the inhibition of the virus-induced cytopathic effect in MT-4 cells as described in J. Med. Chem, 34, 349 (1991).
First, MT-4 cells were suspended in a culture medium at a concentration of 1×10^4 cells/ml and infected with 500 TCID50 (50% cell culture infective dose)/well of HIV-1. Immediately after the virus infection, 100 μl of the cell suspension was brought into each well of a flat-bottomed microtiter tray containing various concentrations of the test compounds(1) to (21). After incubating for 4 or 5 days at 37° C., the number of viable cells was determined by the 3-(4,5-dimethylthiazol-2-yl)-2,5-diphenyltetrazolium bromide (MTT) method, as disclosed in J. Virol. Methods, 20, 309 (1988).

Series [1] is described as follows: cytotoxicity: viability of mock-infected host (MT-4) cells (MTT). It counts as cell-based. As to conditions: human, Cytotoxic concentration that causes death of MT4 cells by 50%, MTT method, read-out: CD50 (the source's name). Here is the method:
The cytotoxicity of the compounds of the present invention was assessed in parallel with their antiviral activity. It was based on the viability of mock-infected host cells as determined by the MTT methods (see J. Virol. Methods, 20, 309 (1988)). AZT was employed as a comparative compound.
For orientation: Tetrazolium dyes change colour on reduction, which living cells bring about.

The mark [2] stands for this setting: Human immunodeficiency virus 1, MT4, read-out: ED50.
Where [3] appears, read: Human immunodeficiency virus 1, MT4, Effective concentration for the inhibition of the proliferation of HIV by 50%, HIV-1-infected MT-4 cells, 4 or 5 days at 37° C., MTT method, read-out: ED50 (the source's name).

In brackets after ≈: the same amount, converted by molar mass. Where two headings read alike, the source gives them in different places.

Take `Cc1cn([C@H]2C[C@H](N=[N+]=[N-])[C@@H](CO)O2)c(=O)[nH]c1=O` [AZT, 3'-azido-3'-deoxythymidine, reference compound]: in the series on HIV-1 (setting [2]), the EC50 is 0.00116 µg/mL (≈ 0.00434 µM). In addition, the CC50 in series [1] came out at 0.558 µg/mL (≈ 2.09 µM).
With `CCOCn1c(Oc2cc(C)cc(C)c2)c(CC)c(=O)[nH]c1=O` [Compound 1, 1-ethoxymethyl-5-ethyl-6-(3',5'-dimethylphenoxy)-2,4-pyrimidinedione], the EC50 in the series with HIV-1 (setting [3]) was < 0.001 µg/mL. For the same compound, in the series with HIV-1, the “S. I. (CD50 /ED50)” value is > 84,680. The CC50 in series [1] amounted to 84.7 µg/mL (≈ 266 µM).
Taken in the same sequence, the figures for `CCOCn1c(Oc2cc(C)cc(C)c2)c(C(C)C)c(=O)[nH]c1=O` [Compound 2, 1-ethoxymethyl-5-isopropyl-6-(3',5'-dimethylphenoxy)-2,4-pyrimidinedione] were < 0.00256 µg/mL, > 8,425 and 21.6 µg/mL (≈ 64.9 µM).
For `CCOCn1c(Oc2ccccc2)c(CC)c(=O)[nH]c1=O` [Compound 3, 1-ethoxymethyl-5-ethyl-6-phenoxy-2,4-pyrimidinedione], in that order: < 0.001 µg/mL, > 16,630 and 16.6 µg/mL (≈ 57.3 µM).
With `CCOCn1c(Oc2ccccc2)c(C(C)C)c(=O)[nH]c1=O` [Compound 4, 1-ethoxymethyl-5-isopropyl-6-phenoxy-2,4-pyrimidinedione], the EC50 in the series on HIV-1 (setting [2]) amounted to 0.018 µg/mL (≈ 0.0591 µM). Moreover, the “S. I. (CD50 /ED50)” value with HIV-1 is reported as > 5,111. For the same compound, the CC50 in series [1] was determined as 92 µg/mL (≈ 302 µM).
On to `CCc1c(Oc2cc(C)cc(C)c2)n(COCc2ccccc2)c(=O)[nH]c1=O` [Compound 5, 1-benzyloxymethyl-5-ethyl-6-(3',5'-dimethylphenoxy)-2,4-pyrimidinedione], for which, in the series on HIV-1 (setting [3]), the EC50 was < 0.00256 µg/mL. In addition, in the series on HIV-1, the “S. I. (CD50 /ED50)” value was > 11,585. The CC50 in series [1] is 29.7 µg/mL (≈ 78 µM).
Consider `Cc1cc(C)cc(Oc2c(C(C)C)c(=O)[nH]c(=O)n2COCc2ccccc2)c1` [Compound 6, 1-benzyloxymethyl-5-isopropyl-6-(3',5'-dimethylphenoxy)-2,4-pyrimidinedione], for which the EC50 with HIV-1 (setting [3]) was < 0.00256 µg/mL. The “S. I. (CD50 /ED50)” value in the series with HIV-1 is on record as > 5,246. In addition, the CC50 in series [1] stood at 13.4 µg/mL (≈ 34 µM).
Taken in the same sequence, the figures for `CC(C)c1c(Oc2ccccc2)n(COCc2ccccc2)c(=O)[nH]c1=O` [Compound 7, 1-benzyloxymethyl-5-isopropyl-6-phenoxy-2,4-pyrimidinedione] were < 0.001 µg/mL, > 10,210 and 10.2 µg/mL (≈ 27.9 µM).
Regarding `CCc1c(Oc2cc(C)cc(C)c2)n(COCCOC(C)=O)c(=O)[nH]c1=O` [Compound 8, 1-(2'-acetoxyethoxymethyl)-5-ethyl-6-(3',5'-dimethylphenoxy)-2,4-pyrimidinedione], in the series on HIV-1 (setting [3]), the EC50 is < 0.00256 µg/mL. Moreover, the “S. I. (CD50 /ED50)” value in the series with HIV-1 is > 3,718. In addition, in series [1], the CC50 was found to be 9.52 µg/mL (≈ 25.3 µM).
With `CCc1c(Oc2cc(C)cc(C)c2)n(COCCO)c(=O)[nH]c1=O` [Compound 9], in the series with HIV-1 (setting [3]), the EC50 came out at 0.992 µg/mL (≈ 2.97 µM). Also, the CC50 in series [1] came out at 35.1 µg/mL (≈ 105 µM).
Taken in the same sequence, the figures for `CC(=O)OCCOCn1c(Oc2cc(C)cc(C)c2)c(C(C)C)c(=O)[nH]c1=O` [Compound 10, 1-(2'-acetoxyethoxymethyl)-5-isopropyl-6-(3',5'-dimethylphenoxy)-2,4-pyrimidinedione] were 0.00351 µg/mL (≈ 0.00899 µM) and 119 µg/mL (≈ 304 µM).
Taken in the same sequence, the figures for `Cc1cc(C)cc(Oc2c(C(C)C)c(=O)[nH]c(=O)n2COCCO)c1` [Compound 11, 1-(2'-hydroxyethoxymethyl)-5-isopropyl-6-(3',5'-dimethylphenoxy)-2,4-pyrimidinedione] were 0.0107 µg/mL (≈ 0.0308 µM) and 129 µg/mL (≈ 370 µM).
Taken in the same sequence, the figures for `COCCOCn1c(Oc2cc(C)cc(C)c2)c(C(C)C)c(=O)[nH]c1=O` [Compound 12, 1-(2'-methoxyethoxymethyl)-5-isopropyl-6-(3',5'-dimethylphenoxy)-2,4-pyrimidinedione] were 0.0106 µg/mL (≈ 0.0291 µM) and 126 µg/mL (≈ 348 µM).
With `CCOCn1c(C(=O)c2cc(C)cc(C)c2)c(CC)c(=O)[nH]c1=O` [Compound 13, 1-ethoxymethyl-5-ethyl-6-(3',5'-dimethylbenzoyl)-2,4-pyrimidinedione], in the series with HIV-1 (setting [3]), the EC50 is < 0.001 µg/mL. The “S. I. (CD50 /ED50)” value in the series with HIV-1 is listed as > 5,860. In addition, the CC50 in series [1] was 5.86 µg/mL (≈ 17.7 µM).
Taken in the same sequence, the figures for `CCOCn1c(C(=O)c2cc(C)cc(C)c2)c(C(C)C)c(=O)[nH]c1=O` [Compound 14, 1-ethoxymethyl-5-isopropyl-6-(3',5'-dimethylbenzoyl)-2,4-pyrimidinedione] were < 0.001 µg/mL, > 15,330 and 15.3 µg/mL (≈ 44.5 µM).
With `CCOCn1c(C(=O)c2ccccc2)c(CC)c(=O)[nH]c1=O` [Compound 15, 1-ethoxymethyl-5-ethyl-6-benzoyl-2,4-pyrimidinedione], in the series with HIV-1 (setting [3]), the EC50 amounted to 0.043 µg/mL (≈ 0.142 µM). Further, the CC50 in series [1] amounted to 103 µg/mL (≈ 342 µM).
Regarding `CCOCn1c(C(=O)c2ccccc2)c(C(C)C)c(=O)[nH]c1=O` [Compound 16, 1-ethoxymethyl-5-isopropyl-6-benzoyl-2,4-pyrimidinedione], the EC50 with HIV-1 (setting [3]) is 0.0116 µg/mL (≈ 0.0367 µM). For the same compound, the CC50 in series [1] is 88.7 µg/mL (≈ 280 µM).
With `CCc1c(C(=O)c2cc(C)cc(C)c2)n(COCc2ccccc2)c(=O)[nH]c1=O` [Compound 17, 1-benzyloxymethyl-5-ethyl-6-(3',5'-dimethylbenzoyl)-2,4-pyrimidinedione], the EC50 in the series on HIV-1 (setting [2]) is < 0.001 µg/mL. Also, the “S. I. (CD50 /ED50)” value with HIV-1 is recorded as > 10,550. For the same compound, the CC50 in series [1] was found to be 1.05 µg/mL (≈ 2.69 µM).
As to `Cc1cc(C)cc(C(=O)c2c(C(C)C)c(=O)[nH]c(=O)n2COCc2ccccc2)c1` [Compound 18, 1-benzyloxymethyl-5-isopropyl-6-(3',5 '-dimethylbenzoyl)-2,4-pyrimidinedione], in the series on HIV-1 (setting [3]), the EC50 is < 0.001 µg/mL. Besides, the “S. I. (CD50 /ED50)” value with HIV-1 is > 11,920. For the same compound, the CC50 in series [1] came to 11.9 µg/mL (≈ 29.3 µM).
`CC(C)c1c(C(=O)c2ccccc2)n(COCc2ccccc2)c(=O)[nH]c1=O` [Compound 19, 1-benzyloxymethyl-5-isopropyl-6-benzoyl-2,4-pyrimidinedione]: in the series on HIV-1 (setting [2]), the EC50 is < 0.01 µg/mL. Also, the “S. I. (CD50 /ED50)” value in the series with HIV-1 was > 15,450. Further, the CC50 in series [1] amounted to 15.4 µg/mL (≈ 40.8 µM).
Regarding `Cc1cc(C)cc(C(=O)c2c(C(C)C)c(=O)[nH]c(=O)n2COCCO)c1` [Compound 20], the EC50 with HIV-1 (setting [3]) worked out at 0.00367 µg/mL (≈ 0.0102 µM). In addition, the CC50 in series [1] was 51.7 µg/mL (≈ 143 µM).
As for `COCCOCn1c(C(=O)c2cc(C)cc(C)c2)c(C(C)C)c(=O)[nH]c1=O` [Compound 21, 1-(2'-methoxyethoxymethyl)-5-isopropyl-6-(3',5'-dimethylbenzoyl)-2,4-pyrimidinedione], the EC50 in the series with HIV-1 (setting [3]) came out at 0.0119 µg/mL (≈ 0.0318 µM). Besides, in series [1], the CC50 came out at 121 µg/mL (≈ 324 µM).

The values above are taken from US6136815A, “Antiviral 2,4-pyrimidinedione derivatives and process for the preparation thereof” (Korea Research Inst. of Chem. Tech., priority 1996, dated 2000).
